In data set [1] the test system is hippocampal functional connectivity. Description: Phase II placebo-controlled crossover trial: hippocampal functional connectivity by resting-state fMRI in cognitively normal subjects. It counts as in vivo, human. The protocol:
(§1) A phase II, randomized, double-blind, placebo-controlled crossover clinical trial of 26 CN subjects (ranging in age from 55 to 75 years) to assess the potential effect of levetiracetam on hippocampal functional connectivity (a risk marker for cognitive decline and cognitive impairment and progression to AD) was conducted. 35 patients were recruited and assessed for eligibility and the 26 eligible subjects were separated into Group A or Group B treatment groups. Group A subjects received an oral placebo tablet daily for two weeks followed by a four-week washout period; then, the subjects received an oral levetiracetam tablet daily for two weeks (i.e., two-week placebo treatment, four-week washout period, and two-week levetiracetam treatment). Group B subjects received treatment using the reverse sequence (i.e., two-week levetiracetam treatment, four-week washout period, and two-week placebo treatment). The tablet was characterized by 220 mg levetiracetam in extended release form, i.e. Tablet D (Table 2) above.
For each scanning session, imaging was carried out on a 3T GE MR750 whole-body scanner (GE Healthcare, Waukesha WI) with a body transmit and a 32-channel head receive coil (Nova Medical, Wilmington MA). Imaging acquisition included T1- and T2-weighted high resolution, anatomical images (TR=2521.27 ms, TE=3.596 ms, Voxel resolution: 0.5×0.5×0.8 mm3, FOV: 25.6 cm, Flip angle: 8°). […]
Total Functional connectivity indices (TFCI) were obtained based on the traditional region of interest (ROI)-based method (Chen et al, 2011) in which individual cerebrums were automatically parcellated into 90 regions, per the Automated Anatomical Labeling (AAL) toolbox (3), and the FCI was calculated as the summation of Pearson cross-correlation coefficients between the seed region and all other regions in the cerebrum. […] Second, functional connectivity between each ROI and the other brain regions was calculated using the Pearson cross-correlation analysis. […]

For data set [2] the following is noted: cited from earlier work.
The nature of data set [3]: Levetiracetam level in blood after treatment in the LEV-HFC trial. The data set is classed as in vivo, human. Particulars: after two-week treatment with levetiracetam 220 mg extended release daily. Here is the method:
as §1
A total of 25 participants (15 women with a mean [SD] age of 65.9 [3.8] years and 10 men with a mean [SD] age of 66.7 [5.5] years) were enrolled, randomized (12 participants to group A and 13 participants to group B), and completed the study. […]

The values below come from US20250228820A1, “METHODS FOR PREVENTING OR SLOWING THE PROGRESSION OF COGNITIVE DECLINE OR IMPAIRMENT IN SUBJECTS DISPLAYING NORMAL COGNITIVE PERFORMANCE” (AGENEBIO, INC., priority 2022, published 2025).

SMILES strings stand for the structures. Values joined by “and” are separate entries in the source; they are usually repeats but may differ in a detail not shown here. Identical values can stand only once.

Regarding `CC[C@@H](C(N)=O)N1CCCC1=O` [Levetiracetam, (2S)-2-(2-oxopyrrolidin-1-yl) butanamide], in data set [1] (220 mg extended release tablet (Tablet D) daily for two weeks, 25 CN subjects, paired t-test, t=−2.8044, p<0.0098, FIG. 6), the “Functional connectivity of the hippocampus network, levetiracetam compared with placebo” value is listed as “significantly decreased”. The “Period I FC (hippocampal functional connectivity)” value in data set [1] (individual subjects, first two-week period, levetiracetam 220 mg extended release daily (numbers without *)) was 0.209 and 0.602 and 0.148 (2×) and 0.241 and 0.138 and 0.099 and 0.136 and 0.504 and 0.253 and 0.367 and 0.173 and 0.303. In data set [1] (individual subjects, second two-week period after four-week washout, levetiracetam 220 mg extended release daily (numbers without *)), the “Period II FC (hippocampal functional connectivity)” value was 0.264 and 0.238 and 0.366 and 0.013 and 0.352 and 0.31 and 0.048 and 0.177 (2×) and 0.17 and 0.106 and 0.28. For the same compound, the “Plasma half-life in elderly” value in data set [2] (expected in elderly due to decreased renal function) is 9 to 10 h. Also, the “Time of peak plasma concentrations” value in data set [2] (following oral administration) is given as “about 1 hour”. For the same compound, the Plasma half-life entry in data set [2] (in vivo) is listed as “approximately 7±1 hour”. Moreover, the “Time to steady state” value in data set [2] (multiple twice-daily dosing) was 2 days. Besides, in data set [2] (oral), the “Absorption after oral administration” value is “rapidly and almost completely absorbed”; the “Effect of food on bioavailability” value is on record as “not affected by food”. For the same compound, the “LEV [μg] in blood, AVG” value in data set [3] (average of 25 subjects) was 4.3 µg. The “LEV [μg] in blood” value in data set [3] (individual subjects, listed as LEV) is 3 μg and 4.5 μg and 4.8 μg and 6.1 μg and 2.9 μg and 4.1 μg (2×) and 5.1 μg and 4.4 μg (2×) and 6.3 μg and 4.9 μg and 4.2 μg and 3.1 μg and 2.8 μg and 3.8 μg (2×) and 5.8 μg and 5 μg and 3.2 μg and 3.4 μg and 4 μg and 4.7 μg and 2 μg and 8.2 μg.
